The numbers were not newly measured in US10357461B2, “Physically dispersed, molecularly dissolved and/or chemically bound drug(s) in an empty, hard capsule shell composition” (priority 2005, dated 2019), which cites them from elsewhere.

For data set [1] the following is noted: people taking metformin.

The structures appear in SMILES notation. ≈ marks a conversion by molar mass, not a printed value.

`COc1cc2c(c(OC)c1OC)-c1ccc(OC)c(=O)cc1[C@@H](NC(C)=O)CC2` [Colchicine]: for the setting “water”, the solubility in water is 7000 µg/mL (≈ 17.5 mM). As for `C[C@]12CCC(=O)C=C1[C@@H]1C[C@@H]1[C@H]1[C@@H]3[C@@H]4C[C@@H]4[C@@]4(CCC(=O)O4)[C@@]3(C)CC[C@@H]12` [Drospirenone], under “water at 25° C.”, the water solubility is 1.8 µg/mL (≈ 0.00491 mM). With `CN(C)C(=N)N=C(N)N` [metformin], in data set [1], the “people taking the drug who face vitamin B12 deficiency” value was roughly 30%.
